As usually defined, the IC50 is the point on the concentration scale where inhibition reaches its midpoint. Low readings indicate greater potency in that assay, high ones weaker potency in that assay. What is called logD is the decadic logarithm of the distribution of all forms, ionised or not, between an organic phase and buffer at a given pH. As a reminder, the AUC is concentration integrated over time. A low value points to low exposure. In general, half-life refers to how long it takes for the measured level to halve. A high value points to slow decline. One may read the Cmax as the maximum level reached in the sampled fluid or tissue.

The source made the active and inactive calls. No cut-off for these calls is given here. Bounds are passed on as bounds.

The subject of data set [1] is Trypanosoma brucei brucei. As to the kind of experiment: Antitrypanosomal activity against Trypanosoma brucei brucei. Format: functional, organism-based.
The next data set concerns Trypanosoma brucei. As to the kind of experiment: Inhibition of Trypanosoma brucei AdoMetDC assessed as ratio of Kinact to Ki(apparent).
Data set [2] has as its system Trypanosoma brucei rhodesiense. As to the kind of experiment: Antitrypanosomal activity against Trypanosoma brucei rhodesiense. Format: functional, organism-based.
Data set [3] concerns Trypanosoma brucei brucei. As to the kind of experiment: Antitrypanosomal activity against Trypanosoma brucei brucei infected mouse assessed as reduction in parasitemia. Format: functional, organism-based.
The nature of data set [4]: Distribution coefficient, log D at pH 7.4 by shake flask method. Format: physicochemical. Conditions: octanol/water.
The nature of data set [5]: AUC in blood of single dose ip administered mouse. Format: ADME, organism-based.
Data set [6] can be described thus: Half life in single dose ip administered mouse. Conditions: in vivo. Format: ADME, organism-based.
Data set [7] in a line: AUC in brain of single dose ip administered mouse. Format: ADME, organism-based.
Data set [8] can be described thus: Cmax in blood of single dose ip administered mouse. Format: ADME, organism-based. Also on record: route intraperitoneal.
A short description of data set [9]: Cmax in brain of single dose ip administered mouse. On the set-up: route intraperitoneal. Format: ADME, organism-based.

As for `CCc1nc2c(N)ncnc2n1[C@@H]1O[C@H](CN(C)C/C=C\CN)[C@@H](O)[C@H]1O`, in data set [1], 900 nM corresponded to half-maximal inhibition (IC50).
Take `CN(C/C=C\CN)C[C@H]1O[C@@H](n2cnc3c(N)ncnc32)[C@@H](F)[C@@H]1O`: the Ratio in the data set with Trypanosoma brucei is 0.19. In addition, the IC50 in data set [2] is 2600 nM; in data set [1], greater than 14000 nM.
In the case of `CCCc1nc2c(N)ncnc2n1[C@@H]1O[C@H](CN(C)C/C=C\CN)[C@@H](O)[C@H]1O`, half-maximal inhibition in data set [1] (IC50) was put at 11000 nM.
Regarding `CN(C/C=C\CN)C[C@H]1O[C@@H](n2cnc3c(N)nc(Cl)nc32)[C@H](O)[C@@H]1O`, the Ratio in the data set on Trypanosoma brucei was 0.02. Also, the IC50 amounted to 1700 nM in [2] and 7270 nM in data set [1].
Compound `Cc1nc(N)c2ncn([C@@H]3O[C@H](CN(C)C/C=C\CN)[C@@H](O)[C@H]3O)c2n1` gave a concentration for half-maximal inhibition (IC50) in data set [1] greater than 14000 nM.
With `CN(C/C=C\CN)C[C@H]1O[C@@H](n2cnc3c(N)ncnc32)[C@H](F)[C@@H]1O`, the Ratio with Trypanosoma brucei amounted to 0.19. Also, the results for the 50% inhibitory concentration (IC50) in [2] and in [1] were 1400 nM and greater than 14000 nM, respectively.
With `CN(C/C=C\CN)C[C@H]1O[C@@H](n2cnc3c(N)ncnc32)[C@H](O)[C@@H]1O`, in the data set with Trypanosoma brucei, the Ratio stood at 1.5. Moreover, the IC50 was 11 nM in data set [2] and 210 nM in data set [1]. In addition, the result in data set [3] was Active. In data set [4], this compound gave a logD of -1.8.
Regarding `Cc1nc2c(N)ncnc2n1[C@@H]1O[C@H](CN(C)C/C=C\CN)[C@@H](O)[C@H]1O`, the Ratio with Trypanosoma brucei was found to be 7.78. Besides, the IC50 in data set [2] was 1 nM; in data set [1] it was 27 nM. Besides, the AUC is 17900 ng·h/mL in [5] and 1300 ng·h/mL in data set [7]. Also, the half-life in data set [6] is 7.43 h. The Cmax was 36900 ng/mL in [8] and 660 ng/mL in data set [9]. Also, in data set [3], the result was Active.

These data come from ChEMBL document CHEMBL1136916, “Discovery of new S-adenosylmethionine decarboxylase inhibitors for the treatment of Human African Trypanosomiasis (HAT)” (Bioorg Med Chem Lett, 2009).
